Read-outs that look alike come from different tables or passages of the source.
What was measured:
[1] = tested on: PAN02 cells (murine pancreatic cancer); experiment: Intraperitoneal tumor model study, PAN02; format: in vivo, C57/BL6 mice; details: PAN02 i.p. model
From the text: (§1) Female BALB/c and C57/BL6 mice (aged 6 weeks, 18-20 g) were purchased from The Jackson Laboratory (Bar Harbor, Me.). All experimental protocols in this study were approved by the Animal Care Committee of the University Health Network (Toronto, Ontario, Canada) in accordance with the policies established in the Guide to the Care and Use of Experimental Animals prepared by the Canadian Council of Animal Care. For each study, the DTX was formulated in a Tween80/ethanol/saline (20:13:67) solution (4 mg DTX/mL), and sterile filtered. The Cellax particles were adjusted to 4, 7.5 or 15 mg DTX/mL in saline and sterile filtered.
PAN02 cells (murine pancreatic cancer) were cultured in RPMI 1640 supplemented with 10% FBS (Invitrogen), penicillin (100 U/ml) and streptomycin (100 μg/ml) (Invitrogen), and pyruvate (1 mM). Prior to inoculation, the cells were lifted from the culture plates with TrypLE Express (Invitrogen), and re-suspended in supplement free (no FBS, no antibiotics) RPMI media. The PAN02 cells (5×10^6 cells/mL, 0.5 mL) were injected into the intraperitoneal space of C57/BL6 mice. One day post-administration of the cells, the mice (n=3 per group) were treated with DTX (40 mg/kg), Cellax (40 mg DTX eqv/kg), or saline. Mice were sacrificed when >20% body weight loss was recorded, or at the first signs of behavioral or mobility dysfunction.

[2] = doses of 210, 150, 300, and 233 mg/m^2 for PTX, NK105, Genexol, Opaxio respectively; cited from earlier work
[3] = tested on: LL/2 murine Lewis lung cell carcinoma cells; experiment: In vitro cytotoxicity (IC50 analysis), XTT assay; format: cell-based; details: Mus musculus, LL/2 (lung)
Method: (§2) EMT-6 murine mammary carcinoma cells and LL/2 murine Lewis lung cell carcinoma cells were cultured in DMEM media (Invitrogen) with high glucose, supplemented with 10% FBS (Invitrogen), penicillin (100 U/ml) and streptomycin (100 μg/ml) (Invitrogen). The mouse mammary carcinoma cell line EMT-6 was a generous gift from Dr. David Stojdl at the CHEO Research Institute and Dr. Douglas Mahoney at the University of Ottawa. For plating, cells were released from the culture flask with trypsin (Invitrogen), resuspended at a concentration of 1×10^5 cell/mL, and 100 uL of cell suspension was added to the wells of 96 well polystyrene plate. The cells were maintained for 24 hours in culture (37° C., 5% CO2, humidified) before addition of particles. DTX solutions were made up in DMSO and diluted with media to form a 100 nM stock solution with 0.1% DMSO content. These DTX samples were 2× serially diluted with 0.1% DMSO media. Cellax particles were assayed for DTX content, and 10× serially diluted with media. The cultures were maintained for three days, at which time cell viability was assayed by the XTT assay. Briefly, a 1 mg/mL solution of XTT reagent (Sigma) in water was prepared, and phenazine (Sigma) was added just before analysis ([…]). The culture plates were incubated for two hours at 37° C., and absorbance of each well at 480 nm was then read. Wells treated with media (or 0.1% DMSO media) represent 100% viable cultures, and wells containing no cells represent background signal. In a parallel experiment, the DTX or Cellax-containing media were added to the EMT-6 and LL/2 cultures in four steps, with addition of ¼ the dose every 12 hours for two days. The data was analyzed in GraphPad Prism, and the IC50 for each system was calculated.

[4] = tested on: EMT-6 murine mammary carcinoma cells; experiment: In vitro cytotoxicity (IC50 analysis), XTT assay; format: cell-based; details: Mus musculus, EMT-6 (mammary)
Method: as §2

[5] = Maximum tolerated dose (MTD) study in healthy mice; details: female, BALB/c, mouse, in vivo, iv; single i.v. dose, limit <5% body weight loss; read-out: MTD for docetaxel in mice
From the text: as §1
Tissues from mice (organs, bones, and tumors) were rinsed with saline and fixed in 10% formalin for 2 days, followed by storage in 70% ethanol. Preparation of tissues into slides was performed at the Toronto General Hospital Pathology Research Program lab (Toronto, ON). […] Prepared slides were analyzed on an Aperio Scanner at the Advanced Optical Microscopy Facility (AOMF) at the Princess Margaret Hospital (Toronto, ON). […] For TUNEL, Ki67, and CD31 stained samples, brown pixels were counted with the ImageScope Positive Pixel Count algorithm. For each tumor or organ analyzed, three tissue sections were each divided into three equal regions, generating n=9 data points. Image analysis output were positive pixel counts divided by the area analyzed. […]

LL/2 flank tumors = experiment: Subcutaneous flank tumor study, LL/2; format: in vivo
[6] = tested on: EMT-6 cells (i.v. inoculated); experiment: Metastatic tumor study, i.v. EMT-6 cells; format: in vivo, BALB/c mice
From the text: as §1
Healthy BALB/c mice received an i.v. dose of EMT-6 cells (in supplement free DMEM media) via tail vein injection (50 uL, 2.5×10^5 cell/mL), and one day following received a dose of Cellax (40 mg DTX/kg), 40 mg/kg DTX, or saline (n=10/group). A second dose (20 mg/kg DTX) was administered on day 7 post-cell injection. Mice were sacrificed when >20% body weight loss was recorded, or at the first signs of behavioral or mobility dysfunction. The lungs, heart, liver, kidneys, spleen, femurs, and brain were harvested for histological analysis. A Kaplan Meier plot of survival probability was generated from the survival data.

EMT-6 flank tumors = experiment: Subcutaneous flank tumor study, EMT-6; format: in vivo
From the text: as §1
Tissues from mice (organs, bones, and tumors) were rinsed with saline and fixed in 10% formalin for 2 days, followed by storage in 70% ethanol. […] Prepared slides were analyzed on an Aperio Scanner at the Advanced Optical Microscopy Facility (AOMF) at the Princess Margaret Hospital (Toronto, ON). […] For TUNEL, Ki67, and CD31 stained samples, brown pixels were counted with the ImageScope Positive Pixel Count algorithm. For each tumor or organ analyzed, three tissue sections were each divided into three equal regions, generating n=9 data points. Image analysis output were positive pixel counts divided by the area analyzed.
EMT-6 cells were cultured as described previously. […] The tumor size was measured by a caliper, and body weight was monitored. […]

For `Nc1ccn([C@@H]2O[C@H](CO)[C@@H](O)C2(F)F)c(=O)n1` [gemcitabine], the benefit of treatment ([1]; 120 mg/kg) was “did not confer significantly increased benefits”.

In the case of `CC(=O)O[C@H]1C(=O)[C@@]2(C)[C@H]([C@H](OC(=O)c3ccccc3)[C@]3(O)C[C@H](OC(=O)[C@H](O)[C@@H](NC(=O)c4ccccc4)c4ccccc4)C(C)=C1C3(C)C)[C@]1(OC(C)=O)CO[C@@H]1C[C@@H]2O` [PTX, paclitaxel], the half life [2] is given as 13.3 h.

Compound `CC(=O)O[C@@]12CO[C@@H]1C[C@H](O)[C@@]1(C)C(=O)[C@H](O)C3=C(C)[C@@H](OC(=O)[C@H](O)[C@@H](NC(=O)OC(C)(C)C)c4ccccc4)C[C@@](O)([C@@H](OC(=O)c4ccccc4)[C@H]21)C3(C)C` [DTX, Docetaxel] has an IC50 ([3]; 48 h, dose in four parts over two days, read-out: IC50 DTX (nM) Metronomic) of 12 nM, an IC50 ([3]; single (bolus) dose, XTT, Cellax as DTX content, read-out: IC50) of 767 nM and an IC50 ([4]; EMT6, 48 h, dose in four parts over two days, read-out: IC50 DTX (nM) Metronomic) of 6 nM. The IC50 ([4]; EMT6, single (bolus) dose, XTT, Cellax as DTX content, read-out: IC50) was 80 nM, the survival ([1]; 40 mg/kg) was “survival was significantly extended” and the “weight loss or disease symptoms” value ([1]; 40 mg/kg (DTX eqv), n=3 per group) was “did not exhibit signs of weight loss or disease symptoms”. The MTD at 7 days [5] was 40 mg/kg, the “effect on tumor growth” value (LL/2 flank tumors; LL/2 flank model, single dose 40 mg/kg DTX (eqv)) was “did not alter tumor growth characteristics” and the “tumor histology: necrosis (H&E) and TUNEL staining” value (LL/2 flank tumors; LL/2 tumors) was “positive TUNEL staining was minimal”. The median survival time ([6]; 40 mg/kg day 1, 20 mg/kg day 7, n=10/group) was 9 days, the “onset of weight loss” value ([6]; metastatic EMT-6 model, 40 mg/kg) was 6 days and the “signs of disease stress: parelsis (leg movements), piloerection” value ([6]; metastatic EMT-6 model, mice affected per group of 10) was 4/10. For the same compound, the “effect on tumor growth” value (EMT-6 flank tumors; EMT-6 flank model, single dose 40 mg/kg DTX (eqv), Cellax p<0.001 vs controls, p<0.05 vs DTX) was “minor (not significant) effect on tumour growth” and the “tumor histology: apoptosis (TUNEL), cell replication (Ki67), angiogenesis (CD31)” value (EMT-6 flank tumors; EMT-6 tumors, 40 mg/kg, compared to DTX treated tumors and controls) was “caused necrosis/apoptosis”.

Source: US8591877B2, “Cellulose-based nanoparticles for drug delivery” (Ontario Institute for Cancer Research, priority 2011, dated 2013)
